Measured values from US20190284192A1, “NITROGENOUS MACROCYCLIC COMPOUND, PREPARATION METHOD THEREFOR, PHARMACEUTICAL COMPOSITION AND APPLICATION THEREOF” (LUOXIN PHARMACEUTICAL (SHANGHAI) CO., LTD., priority 2016, published 2019).

Legend:
BRD4 (BD2) = molecular target: T1, BRD4 (BD2) (Homo sapiens, UniProt O60885); assay: BRD4 (BD2) bromodomain binding, HTRF; conditions: 2 h incubation at r.t.
T1 construct: Each member comprises two tandem bromodomains (BD1 and BD2) for recognizing the acetylated lysine residues

BRD4 (BD1) = molecular target: T2, BRD4 (BD1) (Homo sapiens, UniProt O60885); assay: BRD4 (BD1) bromodomain binding, HTRF; conditions: 2 h incubation at r.t.
T2 construct: Each member comprises two tandem bromodomains (BD1 and BD2) for recognizing the acetylated lysine residues

MV-4-11 cells = assay: Inhibitory effect on MV-4-11 cells (CellTiter-Glo); assay type: cell-based; conditions: Homo sapiens, MV4-11; 72 hours, CellTiter-Glo; read-out: MV-4-11

| SMILES | IC50 (BRD4 (BD2)) | IC50 (BRD4 (BD1)) | IC50 (MV-4-11 cells) |
| --- | --- | --- | --- |
| CCS(=O)(=O)Cc1cnc2c(c1)-c1cn(C)c(=O)cc1CN=C2c1ccc(F)cc1 [Compound 4022, 10-((ethylsulfonyl)methyl)-7-(4-fluorophenyl)-2-methyl-2,5-dihydro-3H-dipyrido[2,3-c: 3′,4′-e]azepin-3-ketone] | 7 nM | 12 nM | 190 nM |
| CNS(=O)(=O)C(C)(C)c1ccc2c(c1)-c1cn(C)c(=O)cc1[C@H](C)N=C2c1ccc(F)cc1 [Compound 4090, (S)-2-(7-(4-flurophenyl)-2,5-dimethyl-3-oxo-3,5-dihydro-2H-benzo[c]pyrido[3,4-e]azepin-10-yl)-N-methylpropane-2-sulfamide] | 1 nM | 1 nM | 3 nM |
| CCS(=O)(=O)Nc1cc2c(cc1F)C(c1ccc(F)cc1)=NC(C)c1cc(=O)n(C)nc1-2 (stereo not drawn) [Compound 4095, N-(9-Fluoro-7-(4-flurophenyl)-2,5-dimethyl-3-oxo-3,5-dihydropyridin-2H-benzo[c]pyridazino[3,4-e]azepin-10-yl)ethylsulfonamide] | 2 nM | 5 nM | 14 nM |
| CCS(=O)(=O)Cc1ccc2c(c1)-c1cn(C)c(=O)cc1[C@H](C)N=C2c1ccc(O)cc1 [Compound 4061, (S)-10-((ethylsulfonyl)methyl)-7-(4-hydroxylphenyl)-2,5-dimethyl-2,5-dihydro-3H-benzo[c]pyrido[3,4-e]azepin-3-ketone] | 1 nM | 2 nM | 11 nM |
| CCS(=O)(=O)Nc1cc2c(cc1F)C(c1ccc(F)cc1)=N[C@@H](C1CC1)c1cc(=O)n(C)cc1-2 [Compound 4084, (S)—N-(5-cyclopropyl-9-fluoro-7-(4-flurophenyl)-2-methyl-3-oxo-3,5-dihydro-2H-benzo[c]pyrido[3,4-e]azepin-10-yl)ethylsulfonamide] | 1 nM | 2 nM | 0.5 nM |
| CNS(=O)(=O)C(C)c1ccc2c(c1)-c1cn(C)c(=O)cc1[C@H](C)N=C2c1ccc(F)cc1 (stereo partly drawn) [Compound 4091, 1-((S)-7-(4-flurophenyl)-2,5-dimethyl-3-oxo-3,5-dihydro-2H-benzo[c]pyrido[3,4-e]azepin-10-yl)-N-methylethane-1-sulfamide] | 0.7 nM | 1 nM | 3 nM |
| CCS(=O)(=O)Cc1cc2c(cc1Cl)C(c1ccc(F)cc1)=N[C@@H](C)c1cc(=O)n(C)cc1-2 [Compound 4086, (S)-9-chloro-10-((ethylsulfonyl)methyl)-7-(4-flurophenyl)-2,5-dimethyl-2,5-dihydro-3H-benzo[c]pyrido[3,4-e]azepin-3-ketone] | 1 nM | 2 nM | 3 nM |
| CCNC(=O)C[C@@H]1N=C(c2ccc(F)cc2)c2ccc(CS(=O)(=O)CC)cc2-c2cn(C)c(=O)cc21 [Compound 4056, (S)—N-ethyl-2-(10-((ethylsulfonyl)methyl)-7-(4-flurophenyl)-2-methyl-3-oxo-3,5-dihydro-2H-benzo[c]pyrido[3,4-e]azepin-5-yl)acetamide] | 1 nM | 1 nM | 32 nM |
| CCS(=O)(=O)Cc1ccc2c(c1)-c1cn(C)c(=O)cc1[C@H](C)N=C2c1ccc(F)c(OC)c1 [Compound 4054, (S)-10-((ethylsulfonyl)methyl)-7-(4-fluoro-3-methoxylphenyl)-2,5-dimethyl-2,5-dihydro-3H-benzo[c]pyrido[3,4-e]azepin-3-ketone] | 1 nM | 2 nM | 9 nM |
| Cn1cc2c(cc1=O)[C@H](CC(N)=O)N=C(c1ccc(F)cc1)c1ccc(CS(C)(=O)=O)cc1-2 [Compound 4014, (S)-2-(7-(4-fluorophenyl)-2-methyl-10-(methylsulfonylmethyl)-3-oxo-3,5-dihydro-2H-benzo[c]pyrido[3,4-e]azepin-5-yl)acetamide] | 1 nM | 2 nM | 292 nM |
| CCNC(=O)C[C@@H]1N=C(c2ccc(Cl)cc2)c2cc(F)ccc2-c2cn(C)c(=O)cc21 [Compound 4034, (S)-2-(7-(4-chlorophenyl)-9-fluoro-2-methyl-3-oxo-3,5-dihydro-2H-benzo[c]pyrido[3,4-e]azepin-5-yl)N-ethyl acetamide] | 1 nM | 4 nM | 15 nM |
| CCS(=O)(=O)Cc1cc2c(cc1O)C(c1ccc(F)cc1)=N[C@@H](C)c1cc(=O)n(C)cc1-2 [Compound 4063, (S)-10-((ethylsulfonyl)methyl)-7-(4-flurophenyl)-9-hydroxyl-2,5-dimethyl-2,5-dihydro-3H-benzo[c]pyrido[3,4-e]azepin-3-ketone] | 1 nM | 1 nM | 3 nM |
| CCS(=O)(=O)Nc1ccc2c(c1)-c1cn(C)c(=O)cc1CN=C2c1ccc(Cl)cc1 [Compound 4024, N-(7-(4-chlorophenyl)-2-methyl-3-oxo-3,5-dihydro-2H-benzo[c]pyrido[3,4-e]azepin-3-yl)ethanesulfonamide] | 1 nM | 2 nM | 9 nM |
| CCC(=O)Nc1cc2c(cc1F)C(c1ccc(F)cc1)=N[C@@H](C)c1cc(=O)n(C)cc1-2 [Compound 4083, (S)—N-(9-fluoro-7-(4-flurophenyl)-2,5-dimethyl-3-oxo-3,5-dihydro-2H-benzo[c]pyrido[3,4-e]azepin-10-yl)propanamide] | 4 nM | 8 nM | 31 nM |
| CCS(=O)(=O)Cc1ccc2c(c1)-c1cn(C)c(=O)cc1CN=C2c1ccc(F)cc1Cl [Compound 4028, 7-(2-chloro-4-fluorophenyl)-10-((ethylsulfone)methyl)-2-methyl-2,5-dihydro-3H-benzo[c]pyrido[3,4-e]azepin-3-ketone] | 2 nM | 22 nM | 161 nM |
| C[C@@H]1N=C(c2ccc(F)cc2)c2cc(Cl)c(N)cc2-c2cn(C)c(=O)cc21 [Compound 4069, (S)-10-amino-9-chloro-7-(4-flurophenyl)-2,5-dimethyl-2,5-dihydro-3H-benzo[c]pyrido[3,4-e]azepin-3-ketone] | 2 nM | 4 nM | 35 nM |
| CCS(=O)(=O)Cc1ccc2c(c1)-c1cn(C)c(=O)cc1CN=C2c1ccc(F)c(OC)c1 [Compound 4089, 10-((ethylsulfonyl)methyl)-7-(4-fluoro-3-methoxylphenyl)-2-methyl-2,5-dihydro-3H-benzo[c]pyrido[3,4-e]azepin-3-ketone] | 4 nM | 8 nM | 108 nM |
| CCS(=O)(=O)Cc1cc2c(cc1OC)C(c1ccc(F)cc1)=N[C@@H](C)c1cc(=O)n(C)cc1-2 [Compound 4057, (S)-10-((ethylsulfonyl)methyl)-7-(4-flurophenyl)-9-methoxyl-2,5-dimethyl-2,5-dihydro-3H-benzo[c]pyrido[3,4-e]azepin-3-ketone] | 1 nM | 2 nM | 4 nM |
| CC[C@@H]1N=C(c2ccc(F)cc2)c2cc(Cl)c(NS(=O)(=O)CC)cc2-c2cn(C)c(=O)cc21 [Compound 4065, (S)—N-(9-chloro-5-ethyl-7-(4-flurophenyl)-2-methyl-3-oxo-3,5-dihydro-2H-benzo[c]pyrido[3,4-e]azepin-10-yl)ethylsulfonamide] | 1 nM | 2 nM | 1 nM |
| C[C@@H]1N=C(c2ccc(F)cc2)c2ccc(CS(C)(=O)=O)cc2-c2cn(C)c(=O)cc21 [Compound 4059, (S)-7-(4-flurophenyl)-2,5-dimethyl-10-((dimethylfulfone)methyl)-2,5-dihydro-3H-benzo[c]pyrido[3,4-e]azepin-3-ketone] | 1 nM | 2 nM | 7 nM |
| CCS(=O)(=O)Cc1ccc2c(c1)-c1cn(C)c(=O)cc1[C@H](C)N=C2c1ccc(C#N)cc1 [Compound 4075] | 2 nM | 4 nM | 10 nM |
| CC[C@@H]1N=C(c2ccc(Cl)cc2)c2ccc(CS(=O)(=O)CC)cc2-c2cn(C)c(=O)cc21 [Compound 4047, (S)-5-ethyl-10-((ethylsulfonyl)methyl)-7-(4-chlorophenyl)-2-methyl-2,5-dihydro-3H-benzo[c]pyrido[3,4-e]azepin-3-ketone] | 1 nM | 0.4 nM | 2 nM |
| CCS(=O)(=O)Nc1cc2c(cc1F)C(c1ccc(F)cc1)=NN(C)c1cc(=O)n(C)cc1-2 [Compound 4092, N-(9-fluoro-7-(4-flurophenyl)-2,5-dimethyl-3-oxo-3,5-dihydro-2H-benzo[e]pyrido[4,3-c][1,2]diazepin-10-yl)ethylsulfonamide] | 0.6 nM | 1 nM | 3 nM |
| CCS(=O)(=O)Cc1ccc2c(c1)-c1cn(C)c(=O)cc1C(COC)N=C2c1ccc(F)cc1 (stereo not drawn) [Compound 4082, 10-((ethylsulfonyl)methyl)-7-(4-flurophenyl)-5-(methoxylmethyl)-2-methyl-2,5-dihydro-3H-benzo[c]pyrido[3,4-e]azepin-3-ketone] | 1 nM | 2 nM | 11 nM |
| CCS(=O)(=O)Cc1ccc2c(c1)-c1cn(C)c(=O)cc1[C@H](CC(=O)O)N=C2c1ccc(F)cc1 [Compound 4067, (S)-2-(10-((ethylsulfonyl)methyl)-7-(4-flurophenyl)-2-methyl-3-oxo-3,5-dihydro-2H-benzo[c]pyrido[3,4-e]azepin-5-yl)acetic acid] | 1 nM | 6 nM | > 2000 nM |
| CCS(=O)(=O)Cc1ccc2c(c1)-c1cn(C)c(=O)cc1[C@H](CC(N)=O)N=C2c1ccc(F)cc1 [Compound 4076, (S)-2-(10-((ethylsulfonyl)methyl)-7-(4-flurophenyl)-2-methyl-3-oxo-3,5-dihydro-2H-benzo[c]pyrido[3,4-e]azepin-5-yl)acetamide] | 1 nM | 2 nM | 114 nM |
| C[C@@H]1N=C(c2ccc(F)cc2)c2ccc(CS(=O)(=O)C(F)(F)F)cc2-c2cn(C)c(=O)cc21 [Compound 4043, (S)-7-(4-flurophenyl)-2,5-dimethyl-10-((trifluoromethylsulphone)methyl)-2,5-dihydro-3H-benzo[c]pyrido[3,4-e]azepin-3-ketone] | 2 nM | 1 nM | 8 nM |
